# According to patent US20170000133A1, “BENZOXABOROLE FUNGICIDES” (SYNGENTA PARTICIPATIONS AG, priority 2013, published 2017):
# How the values were obtained:
# [1] = test system: Pythium ultimum; assay: Pythium ultimum / liquid culture (seedling damping off); format: cell-based; details: Globisporangium ultimum; 200 ppm; potato dextrose broth, 24° C., 2-3 days after application; read-out: disease control (inhibition of growth determined photometrically)
# [2] = test system: Phytophthora infestans; assay: whole plant or invertebrate; format: in vivo; details: in Solanum lycopersicum, foliar, read-out: disease control
# [3] = test system: Gaeumannomyces graminis; assay: Gaeumannomyces graminis / liquid culture (take-all of cereals); format: cell-based; details: PDB potato dextrose broth, 24° C., 4-5 days after application, read-out: disease control (inhibition of growth determined photometrically)
# Summary of the method: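 Cryo-stored mycelial fragments in potato dextrose broth exposed to compound in DMSO at 200 ppm. Incubated at 24 °C; growth inhibition read photometrically 4–5 days after application.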
# [4] = test system: Plasmopara viticola; assay: whole plant or invertebrate; format: in vivo; details: foliar, read-out: disease control
# [5] = test system: Monographella nivalis (Microdochium nivale); assay: Monographella nivalis (Microdochium nivale) / liquid culture (foot rot cereals); format: cell-based; details: PDB potato dextrose broth, 24° C., 4-5 days after application, read-out: disease control (inhibition of growth determined photometrically)
# [6] = test system: Mycosphaerella graminicola (Septoria tritici); assay: Mycosphaerella graminicola (Septoria tritici) / liquid culture (Septoria blotch); format: cell-based; details: Zymoseptoria tritici, PDB potato dextrose broth, 24° C., 4-5 days after application, read-out: disease control (inhibition of growth determined photometrically)
# Summary of the method: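 Conidia from cryostorage were suspended in potato dextrose broth and added to test compound in DMSO at 200 ppm in microtiter wells. Plates were incubated at 24° C and growth inhibition measured photometrically 4-5 days after application.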
# [7] = test system: Glomerella lagenarium (Colletotrichum lagenarium); assay: Glomerella lagenarium (Colletotrichum lagenarium) / liquid culture (anthracnose); format: cell-based; details: Colletotrichum orbiculare, PDB potato dextrose broth, 24° C., 3-4 days after application, read-out: disease control (inhibition of growth measured photometrically)
# Summary of the method: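 Conidia of G. lagenarium from cryogenic storage were suspended in potato dextrose broth and added to test compound in DMSO at 200 ppm. Plates were incubated at 24° C, and growth inhibition was read photometrically 3-4 days after application.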
# [8] = test system: Mycosphaerella arachidis (Cercospora arachidicola); assay: Mycosphaerella arachidis (Cercospora arachidicola) / liquid culture (early leaf spot); format: cell-based; details: PDB potato dextrose broth, 24° C., 4-5 days after application, read-out: disease control (inhibition of growth determined photometrically)
# Summary of the method: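 Conidia from cryogenic storage mixed into potato dextrose broth and added to compound at 200 ppm in DMSO. Incubation at 24° C.; growth inhibition read photometrically 4-5 days after application.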
# [9] = test system: Fusarium culmorum; assay: microbe, parasite or virus in culture; format: cell-based; details: read-out: disease control (inhibition of growth determined visually)
# [10] = test system: Thanatephorus cucumeris (Rhizoctonia solani); assay: Thanatephorus cucumeris (Rhizoctonia solani) / liquid culture (foot rot, damping-off); format: cell-based; details: PDB potato dextrose broth, 24° C., 3-4 days after application, read-out: disease control (inhibition of growth determined photometrically)
# Summary of the method: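 Mycelial fragments from fresh liquid culture were suspended in potato dextrose broth and added to compound in DMSO at 200 ppm. After 3-4 days at 24 °C, growth inhibition was measured photometrically.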
SMILES,melting point [°C],inhibition at 200 ppm [1] [%],pest or weed control at 200 ppm [2] [%],inhibition at 200 ppm [5] [%],also measured
CON(C)C(=O)c1cc2c(cc1F)COB2O [Compound 51],144 to 146,≥ 80,,,
COC(CNC(=O)c1cc2c(cc1F)COB2O)OC [Compound 53],150 to 152,≥ 80,,,
O=C(NCCSCc1ccccc1)c1cc2c(cc1Cl)COB2O [Compound 59],,≥ 80,≥ 80,,
CCOC(=O)C1CC=CCC1NC(=O)c1cc2c(cc1F)COB2O (stereo not shown) [Compound 78],,≥ 80,≥ 80,,inhibition at 200 ppm [3]: ≥ 80%
O=C(NCCSCc1ccccc1)c1cc2c(cc1F)COB2O [Compound 84],,≥ 80,≥ 80,,pest or weed control at 200 ppm [4]: ≥ 80%
O=C(NCc1ccc2c(c1)OCCO2)c1cc2c(cc1Cl)COB2O [Compound 87],,≥ 80,≥ 80,,
C#CC1(NC(=O)c2cc3c(cc2F)COB3O)CCCCC1 [Compound 90],,≥ 80,≥ 80,≥ 80,
O=C(NCC1CCCO1)c1cc2c(cc1F)COB2O (stereo not shown) [Compound 94],,≥ 80,≥ 80,,
O=C(NCc1cccc(Cl)c1)c1cc2c(cc1F)COB2O [Compound 119],,≥ 80,≥ 80,,pest or weed control at 200 ppm [4]: ≥ 80%
O=C(NCc1ccc2c(c1)OCCO2)c1cc2c(cc1F)COB2O [Compound 121],,≥ 80,≥ 80,,pest or weed control at 200 ppm [4]: ≥ 80%
COc1ccc(CNC(=O)c2cc3c(cc2F)COB3O)cc1 [Compound 124],,≥ 80,≥ 80,,pest or weed control at 200 ppm [4]: ≥ 80%
O=C(NCc1ccccc1OC(F)(F)F)c1cc2c(cc1F)COB2O [Compound 128],,≥ 80,≥ 80,,
COc1ccc(-c2ccccc2)cc1NC(=O)c1cc2c(cc1Cl)COB2O [Compound 129],,≥ 80,≥ 80,≥ 80,inhibition at 200 ppm [6]: ≥ 80%; inhibition at 200 ppm [3]: ≥ 80%
O=C(NCc1ccccc1C(F)(F)F)c1cc2c(cc1F)COB2O [Compound 132],,≥ 80,≥ 80,≥ 80,pest or weed control at 200 ppm [4]: ≥ 80%; inhibition at 200 ppm [3]: ≥ 80%; inhibition at 200 ppm [7]: ≥ 80%
O=C(NCc1ccc(Oc2ccccc2)cc1)c1cc2c(cc1F)COB2O [Compound 136],178 to 180,≥ 80,,≥ 80,inhibition at 200 ppm [6]: ≥ 80%; inhibition at 200 ppm [8]: ≥ 80%; inhibition at 200 ppm [7]: ≥ 80%
O=C(NCc1ccc(Cl)nc1)c1cc2c(cc1F)COB2O [Compound 138],,≥ 80,≥ 80,,
O=C(NCc1ccco1)c1cc2c(cc1F)COB2O [Compound 144],158 to 160,≥ 80,,≥ 80,inhibition at 200 ppm [6]: ≥ 80%; pest or weed control at 200 ppm [4]: ≥ 80%; inhibition at 200 ppm [3]: ≥ 80%; inhibition at 200 ppm [8]: ≥ 80%; inhibition at 200 ppm [7]: ≥ 80%
CC(C)c1ccc(NC(=O)c2cc3c(cc2F)COB3O)cc1 [Compound 146],184 to 186,≥ 80,,≥ 80,inhibition at 200 ppm [6]: ≥ 80%; inhibition at 200 ppm [9]: ≥ 80%; inhibition at 200 ppm [7]: ≥ 80%
COC(=O)c1cc2cc(NC(=O)c3cc4c(cc3F)COB4O)ccc2s1 [Compound 163],,≥ 80,≥ 80,,
CC(=O)c1sc(NC(=O)c2cc3c(cc2F)COB3O)nc1C [Compound 181],,≥ 80,≥ 80,≥ 80,
O=C(Nc1cc(-c2ccccc2)[nH]n1)c1cc2c(cc1F)COB2O [Compound 182],,≥ 80,≥ 80,,pest or weed control at 200 ppm [4]: ≥ 80%
CC(C#N)OC(=O)c1cc2c(cc1Cl)COB2O (stereo not shown) [Compound 193],,≥ 80,≥ 80,,

SMILES,melting point [°C],inhibition at 200 ppm [1] [%],pest or weed control at 200 ppm [2] [%],inhibition at 200 ppm [5] [%],also measured
COC(=O)C(C)OC(=O)c1cc2c(cc1Cl)COB2O (stereo not shown) [Compound 206],,≥ 80,≥ 80,,inhibition at 200 ppm [10]: ≥ 80%
O=C(OCc1ccc(C(F)(F)F)nc1)c1cc2c(cc1Cl)COB2O [Compound 217],,≥ 80,≥ 80,≥ 80,inhibition at 200 ppm [3]: ≥ 80%; inhibition at 200 ppm [7]: ≥ 80%
N#CCCOC(=O)c1cc2c(cc1Cl)COB2O [Compound 231],,≥ 80,≥ 80,,
O=C(OCC(F)F)c1cc2c(cc1Cl)COB2O [Compound 236],,≥ 80,≥ 80,≥ 80,inhibition at 200 ppm [6]: ≥ 80%; inhibition at 200 ppm [3]: ≥ 80%; inhibition at 200 ppm [7]: ≥ 80%
COC(CNC(=O)c1ccc2c(c1)B(O)OC2)OC [Compound 242],148 to 150,≥ 80,,,
O=C(OCCO)c1cc2c(cc1F)COB2O [Compound 243],274 to 276,≥ 80,,,
O=C(OCCO)c1ccc2c(c1)B(O)OC2 [Compound 244],122 to 124,≥ 80,,≥ 80,
COc1ccc(OCCOC(=O)c2ccc3c(c2)B(O)OC3)cc1 [Compound 344],,≥ 80,,≥ 80,inhibition at 200 ppm [6]: ≥ 80%; inhibition at 200 ppm [10]: ≥ 80%; inhibition at 200 ppm [9]: ≥ 80%; pest or weed control at 200 ppm [4]: ≥ 80%; inhibition at 200 ppm [3]: ≥ 80%; inhibition at 200 ppm [8]: ≥ 80%; inhibition at 200 ppm [7]: ≥ 80%
O=C(OCCOc1ccc(Cl)cc1)c1ccc2c(c1)B(O)OC2 [Compound 352],122 to 124,≥ 80,,≥ 80,inhibition at 200 ppm [6]: ≥ 80%; inhibition at 200 ppm [10]: ≥ 80%; inhibition at 200 ppm [3]: ≥ 80%; inhibition at 200 ppm [8]: ≥ 80%
C[Si](C)(C)COC(=O)c1cc2c(cc1F)COB2O [Compound 429],122 to 124,≥ 80,,≥ 80,inhibition at 200 ppm [6]: ≥ 80%; inhibition at 200 ppm [10]: ≥ 80%; inhibition at 200 ppm [9]: ≥ 80%; pest or weed control at 200 ppm [4]: ≥ 80%; inhibition at 200 ppm [3]: ≥ 80%; inhibition at 200 ppm [7]: ≥ 80%
COC(CNC(=O)c1cc2c(cc1Cl)COB2O)OC [Compound 435],150 to 152,,,,
NC(=O)c1cc2c(cc1F)COB2O [Compound 436],216 to 218,≥ 80,,,
O=C(OCCO)c1cc2c(cc1Cl)COB2O [Compound 440],270 to 272,≥ 80,,,
O=C(Oc1ccccn1)c1cc2c(cc1F)COB2O [Compound 442],213 to 215,≥ 80,,≥ 80,inhibition at 200 ppm [10]: ≥ 80%
COC(COC(=O)c1ccc2c(c1)B(O)OC2)OC [Compound 443],110 to 112,≥ 80,,,
COC(COC(=O)c1cc2c(cc1F)COB2O)OC [Compound 444],109 to 111,≥ 80,,,
CC(=O)C(C)OC(=O)c1cc2c(cc1F)COB2O (stereo not shown) [Compound 445],108 to 110,≥ 80,,,
CC(=O)C(C)OC(=O)c1ccc2c(c1)B(O)OC2 (stereo not shown) [Compound 447],110 to 112,≥ 80,,≥ 80,inhibition at 200 ppm [3]: ≥ 80%
CC(=O)COC(=O)c1cc2c(cc1F)COB2O [Compound 448],122 to 124,≥ 80,,≥ 80,
CC(=O)COC(=O)c1cc2c(cc1Cl)COB2O [Compound 450],134 to 136,≥ 80,,,pest or weed control at 200 ppm [4]: ≥ 80%; inhibition at 200 ppm [3]: ≥ 80%
CC(=O)C(C)OC(=O)c1cc2c(cc1Cl)COB2O (stereo not shown) [Compound 451],102 to 104,≥ 80,,≥ 80,inhibition at 200 ppm [6]: ≥ 80%; pest or weed control at 200 ppm [4]: ≥ 80%; inhibition at 200 ppm [3]: ≥ 80%; inhibition at 200 ppm [8]: ≥ 80%
